Reference: patent US7655629B2, “Peptides and their use for the treatment of HIV infections” (priority 2002, dated 2010)
Positions of bridges follow the written chain, without caps; N, C: chain ends. Non-standard residues stand in square brackets, D forms with d. Residues, ends and D or L forms follow the SMILES beside them. Phe(4-F) = N[C@@H](Cc1ccc(F)cc1)C(=O)O; Bta = N[C@@H](Cc1csc2ccccc12)C(=O)O; Cha = N[C@@H](CC1CCCCC1)C(=O)O

Columns and labels:
HIV-1 NL4-3 DTV = conditions: read-out: IC50 DTV, P4-CCR5 cells, peptide 2 h before infection, readout three days after infection
Method in brief: (§1)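 P4-CCR5 cells (CD4, CCR5, CXCR4, HIV-1 promoter-driven β-galactosidase) pretreated 2 h with peptide, then infected with virus containing 1 ng p24 antigen and incubated overnight. Cells washed and cultured without peptide; three days post-infection infectivity read by chemiluminescent β-galactosidase assay, in quintuplicate.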

X4-tropic HIV-1 NL4-3 = conditions: for IC50: read-out: IC50 NL4-3, P4-CCR5 cells, HIV-1 NL4-3, peptide 2 h before infection, readout three days after infection
Method in brief: as §1

Compound | IC50 (HIV-1 NL4-3 DTV) | IC50 (X4-tropic HIV-1 NL4-3) | increase in anti-HIV activity in comparison to VIRIP (X4-tropic HIV-1 NL4-3; from IC50 against two HIV-1 strains (NL4-3, DTV))
CC[C@H](C)[C@H](NC(=O)[C@H](C)NC(=O)[C@H](CCC(=O)O)NC(=O)[C@@H](N)CC(C)C)C(=O)N1CCC[C@H]1C(=O)N[C@@H](CCSC)C(=O)N[C@@H](CO)C(=O)N[C@H](C(=O)N1CCC[C@H]1C(=O)N1CCC[C@@H]1C(=O)N[C@@H](CCC(=O)O)C(=O)N[C@H](C(=O)N[C@@H](Cc1c[nH]c2ccccc12)C(=O)N[C@@H](Cc1ccccc1)C(=O)N[C@@H](CC(N)=O)C(=O)N[C@@H](CCCCN)C(=O)N1CCC[C@H]1C(=O)N[C@@H](Cc1ccccc1)C(=O)N[C@H](C(=O)N[C@@H](Cc1ccccc1)C(=O)O)C(C)C)C(C)C)[C@@H](C)CC [VIR-266, LEAIPMSIPpEVWFNKPFVF] (H-LEAIPMSIP[dP]EVWFNKPFVF-OH) | 830 nM | 590 nM | –
CC[C@H](C)[C@H](NC(=O)[C@H](C)NC(=O)[C@H](CCC(=O)O)NC(=O)[C@@H](N)CC(C)C)C(=O)N1CCC[C@H]1C(=O)N[C@@H](CCSC)C(=O)N[C@@H](CO)C(=O)N[C@H](C(=O)N1CCC[C@H]1C(=O)N1CCC[C@@H]1C(=O)N[C@@H](CCC(=O)O)C(=O)N[C@@H](Cc1ccc(F)cc1)C(=O)N[C@@H](C)C(=O)N[C@@H](Cc1ccccc1)C(=O)N[C@@H](CC(N)=O)C(=O)N[C@@H](CCCCN)C(=O)N1CCC[C@H]1C(=O)N[C@@H](Cc1ccccc1)C(=O)N[C@H](C(=O)N[C@@H](Cc1ccccc1)C(=O)O)C(C)C)[C@@H](C)CC [VIR-259, LEAIPMSIPpE(p-fluorophenylalanine)AFNKPFVF] (H-LEAIPMSIP[dP]E[Phe(4-F)]AFNKPFVF-OH) | 1030 nM | 860 nM | –
CC[C@H](C)[C@H](NC(=O)[C@H](C)NC(=O)[C@H](CCC(=O)O)NC(=O)[C@@H](N)CC(C)C)C(=O)N1CCC[C@H]1C(=O)N[C@@H](CCSC)C(=O)N[C@@H](CO)C(=O)N[C@H](C(=O)N1CCC[C@H]1C(=O)N1CCC[C@@H]1C(=O)N[C@@H](CCC(=O)O)C(=O)N[C@H](C(=O)N[C@@H](CC(C)C)C(=O)N[C@@H](Cc1ccccc1)C(=O)NCC(=O)N[C@@H](CCCCN)C(=O)N1CCC[C@H]1C(=O)N[C@@H](Cc1ccccc1)C(=O)N[C@H](C(=O)N[C@@H](Cc1ccccc1)C(=O)O)C(C)C)C(C)C)[C@@H](C)CC [VIR-191, LEAIPMSIPpEVLFGKPFVF] (H-LEAIPMSIP[dP]EVLFGKPFVF-OH) | 560 nM | 1790 nM | –
H-LEAIPMSIPPELAFAKPFVF-OH [VIR-182] | 2970 nM | 2250 nM | –
CC[C@H](C)[C@H](NC(=O)[C@H](CC(=O)O)NC(=O)[C@H](CCC(=O)O)NC(=O)[C@@H](N)CC(C)C)C(=O)N1CCC[C@H]1C(=O)N[C@@H](CCSC)C(=O)N[C@@H](CO)C(=O)N[C@H](C(=O)N1CCC[C@H]1C(=O)N1CCC[C@@H]1C(=O)N[C@@H](CCC(=O)O)C(=O)N[C@H](C(=O)N[C@@H](C)C(=O)N[C@@H](Cc1ccccc1)C(=O)N[C@@H](CC(N)=O)C(=O)N[C@@H](CCCCN)C(=O)N1CCC[C@H]1C(=O)N[C@@H](Cc1ccccc1)C(=O)N[C@H](C(=O)N[C@@H](Cc1ccccc1)C(=O)O)C(C)C)C(C)C)[C@@H](C)CC [VIR-252, LEDIPMSIPpEVAFNKPFVF] (H-LEDIPMSIP[dP]EVAFNKPFVF-OH) | 1870 nM | 1750 nM | –
CC[C@H](C)[C@H](NC(=O)[C@H](C)NC(=O)[C@H](CCC(=O)O)NC(=O)[C@@H](N)CC(C)C)C(=O)N1CCC[C@H]1C(=O)N[C@@H](CCSC)C(=O)N[C@@H](CO)C(=O)N[C@H](C(=O)N1CCC[C@H]1C(=O)N1CCC[C@@H]1C(=O)N[C@@H](CCC(=O)O)C(=O)N[C@H](C(=O)N[C@@H](Cc1ccccc1)C(=O)N[C@@H](Cc1ccccc1)C(=O)NCC(=O)N[C@@H](CCCCN)C(=O)N1CCC[C@H]1C(=O)N[C@@H](Cc1ccccc1)C(=O)N[C@H](C(=O)N[C@@H](Cc1ccccc1)C(=O)O)C(C)C)C(C)C)[C@@H](C)CC [VIR-192, LEAIPMSIPpEVFFGKPFVF] (H-LEAIPMSIP[dP]EVFFGKPFVF-OH) | 1210 nM | 1540 nM | –
CC[C@H](C)[C@H](NC(=O)[C@H](C)NC(=O)[C@H](CCC(=O)O)NC(=O)[C@@H](N)CC(C)C)C(=O)N1CCC[C@H]1C(=O)N[C@H]1CSSC[C@@H](C(=O)N[C@H](C(=O)NCC(=O)N[C@@H](Cc2ccccc2)C(=O)NCC(=O)N[C@@H](CCCCN)C(=O)N2CCC[C@H]2C(=O)N[C@@H](Cc2ccccc2)C(=O)N[C@H](C(=O)N[C@@H](Cc2ccccc2)C(=O)O)C(C)C)C(C)C)NC(=O)[C@@H]2CCCN2C(=O)[C@@H]2CCCN2C(=O)[C@H]([C@@H](C)CC)NC(=O)[C@H](CO)NC1=O [VIR-162] (H-LEAIPCSIPPCVGFGKPFVF-OH; disulfide 6-11) | 950 nM | 660 nM | –
CC[C@H](C)[C@H](NC(=O)[C@@H]1CCCN1C(=O)[C@@H](NC(=O)[C@H](C)NC(=O)[C@H](CCC(=O)O)NC(=O)[C@@H](N)CC(C)C)[C@@H](C)CC)C(=O)N[C@@H](CO)C(=O)N[C@H](C(=O)N1CCC[C@H]1C(=O)N1CCC[C@@H]1C(=O)N[C@@H](CCC(=O)O)C(=O)N[C@H](C(=O)N[C@@H](C)C(=O)N[C@@H](Cc1ccccc1)C(=O)N[C@@H](CC(N)=O)C(=O)N[C@@H](CCCCN)C(=O)N1CCC[C@H]1C(=O)N[C@@H](Cc1ccccc1)C(=O)N[C@H](C(=O)N[C@@H](Cc1ccccc1)C(=O)O)C(C)C)C(C)C)[C@@H](C)CC [VIR-229, LEAIPISIPpEVAFNKPFVF] (H-LEAIPISIP[dP]EVAFNKPFVF-OH) | 2260 nM | 1280 nM | –
CC[C@H](C)[C@H](NC(=O)[C@H](C)NC(=O)[C@H](CCC(=O)O)NC(=O)[C@@H](N)CC(C)C)C(=O)N1CCC[C@H]1C(=O)N[C@@H](CCSC)C(=O)N[C@@H](CO)C(=O)N[C@H](C(=O)N1CCC[C@H]1C(=O)N1CCC[C@@H]1C(=O)N[C@@H](CCC(=O)O)C(=O)N[C@H](C(=O)N[C@@H](Cc1csc2ccccc12)C(=O)N[C@@H](Cc1ccccc1)C(=O)N[C@@H](CC(N)=O)C(=O)N[C@@H](CCCCN)C(=O)N1CCC[C@H]1C(=O)N[C@@H](Cc1ccccc1)C(=O)N[C@H](C(=O)N[C@@H](Cc1ccccc1)C(=O)O)C(C)C)C(C)C)[C@@H](C)CC [VIR-264, LEAIPMSIPpEV(3-benzothienylalanine)FNKPFVF] (H-LEAIPMSIP[dP]EV[Bta]FNKPFVF-OH) | 700 nM | 590 nM | –
CC[C@H](C)[C@H](NC(=O)[C@H](CCCCN)NC(=O)[C@H](CCC(=O)O)NC(=O)[C@@H](N)CC(C)C)C(=O)N1CCC[C@H]1C(=O)N[C@@H](CCSC)C(=O)N[C@@H](CO)C(=O)N[C@H](C(=O)N1CCC[C@H]1C(=O)N1CCC[C@@H]1C(=O)N[C@@H](CCC(=O)O)C(=O)N[C@H](C(=O)N[C@@H](C)C(=O)N[C@@H](Cc1ccccc1)C(=O)N[C@@H](CC(N)=O)C(=O)N[C@@H](CCCCN)C(=O)N1CCC[C@H]1C(=O)N[C@@H](Cc1ccccc1)C(=O)N[C@H](C(=O)N[C@@H](Cc1ccccc1)C(=O)O)C(C)C)C(C)C)[C@@H](C)CC [VIR-255, LEKIPMSIPpEVAFNKPFVF] (H-LEKIPMSIP[dP]EVAFNKPFVF-OH) | 1230 nM | 650 nM | –
CC[C@H](C)[C@H](NC(=O)[C@H](C)NC(=O)[C@H](CCC(=O)O)NC(=O)[C@@H](N)CC(C)C)C(=O)N1CCC[C@H]1C(=O)N[C@@H](CCSC)C(=O)N[C@@H](CO)C(=O)N[C@H](C(=O)N1CCC[C@H]1C(=O)N1CCC[C@@H]1C(=O)N[C@@H](CCC(=O)O)C(=O)N[C@H](C(=O)N[C@@H](CC1CCCCC1)C(=O)N[C@@H](Cc1ccccc1)C(=O)N[C@@H](CC(N)=O)C(=O)N[C@@H](CCCCN)C(=O)N1CCC[C@H]1C(=O)N[C@@H](Cc1ccccc1)C(=O)N[C@H](C(=O)N[C@@H](Cc1ccccc1)C(=O)O)C(C)C)C(C)C)[C@@H](C)CC [VIR-257, LEAIPMSIPpEV(cyclohexylalanine)FNKPFVF] (H-LEAIPMSIP[dP]EV[Cha]FNKPFVF-OH) | 660 nM | 860 nM | –
H-LEAIPMSIPPEVFFGKPFVF-OH [VIR-170] | 2000 nM | 1520 nM | –
H-LEAIPMSIPPEFAFNKDFVF-OH [VIR-243] | 1980 nM | 2160 nM | –
CC[C@H](C)[C@H](NC(=O)[C@H](C)NC(=O)[C@H](CCC(=O)O)NC(=O)[C@@H](N)CC(C)C)C(=O)N1CCC[C@H]1C(=O)N[C@@H](CCSC)C(=O)N[C@@H](CO)C(=O)N[C@H](C(=O)N1CCC[C@H]1C(=O)N1CCC[C@@H]1C(=O)N[C@@H](CCC(=O)O)C(=O)N[C@H](C(=O)N[C@@H](Cc1ccccc1)C(=O)N[C@@H](Cc1ccccc1)C(=O)N[C@@H](CC(N)=O)C(=O)N[C@@H](CCCCN)C(=O)N1CCC[C@H]1C(=O)N[C@@H](Cc1ccccc1)C(=O)N[C@H](C(=O)N[C@@H](Cc1ccccc1)C(=O)O)C(C)C)C(C)C)[C@@H](C)CC [VIR-197, LEAIPMSIPpEVFFNKPFVF] (H-LEAIPMSIP[dP]EVFFNKPFVF-OH) | 1440 nM | 1270 nM | –
H-LEAIPMSIPPEIAFNKPFVF-OH [VIR-184] | 5390 nM | 1990 nM | 4 fold
CC[C@H](C)[C@H](NC(=O)[C@H](C)NC(=O)[C@H](CCC(=O)O)NC(=O)[C@@H](N)CC(C)C)C(=O)N1CCC[C@H]1C(=O)N[C@@H](CCSC)C(=O)N[C@@H](CO)C(=O)N[C@H](C(=O)N1CCC[C@H]1C(=O)N1CCC[C@@H]1C(=O)N[C@@H](CCC(=O)O)C(=O)N[C@H](C(=O)NCC(=O)N[C@@H](Cc1ccccc1)C(=O)NCC(=O)N[C@@H](CCCCN)C(=O)N1CCC[C@H]1C(=O)N[C@@H](Cc1ccccc1)C(=O)N[C@H](C(=O)N[C@@H](Cc1ccccc1)C(=O)O)C(C)C)C(C)C)[C@@H](C)CC [VIR-190, LEAIPMSIPpEVGFGKPFVF] (H-LEAIPMSIP[dP]EVGFGKPFVF-OH) | 3110 nM | 1840 nM | –
